# Data reported in paper PMC9020739, “Identification of a two-component regulatory system involved in antimicrobial peptide resistance in Streptococcus pneumoniae” (PLoS Pathogens, 2022).
# Where a SMILES comes first, the peptide text is derived from it. Bridges are numbered along the chain shown (N, C = ends). [ ]: non-standard residue; d: D form. The star is where a group is joined. Ileψ(thiazoline)Cys = CC[C@H](C)[C@H](N)C1=N[C@H](C(=O)*)CS1; dOrn = NCCC[C@@H](N)C(=O)O
# Columns and labels:
# Format in all cases: cell-based, Streptococcus pneumoniae
# [1] = system: bceAB and tcs01 genes in S. pneumoniae D39 WT; test: Quantification of gene expression by qPCR; conditions: D39 wild-type, bacitracin 1 μg/ml for 5, 15 and 30 min, relative to untreated control
# Method: (§1) S. pneumoniae D39 WT and Δtcs01 strains were routinely grown to OD600nm = 0.3 in THY. Then 1 μg/mL of bacitracin was added to the growth media for up to 30 min. Samples were taken at time points shown in the results section. Next, the cultures were mixed with RNA protect (Qiagen) at 1:1 ratio and incubated at room temperature for 5 min and centrifuged for 10 min at 3, 200 g at 4°C. The supernatant was decanted and the pellet was stored at -80°C. The bacteria were resuspended in 100 μL of sterile Tris-EDTA (TE), containing 15 mg/mL lysozyme (Sigma) then 20 μL of Proteinase K (20 mg/mL) (Roche) were added. The sample was vortexed 5 times for 10 sec at two-minutes intervals. Then 350 μL of lysis buffer from the Nucleospin RNA kit (Macherey-Nagel) were added to the sample with 3.5 μL of β-mercaptoethanol and 25 mg of glass beads (Sigma). The cells were lysed by continual vortexing for 5 min. The mRNA was extracted according to the manufacturer’s instructions. After elution, RNA samples were incubated with 5 μL of DNAse for 20 min at room temperature, then inactivated by heating for 70°C for 5 min. RNA concentration was measured using Nanovue (GE Healthcare). For cDNA synthesis 1 μg of RNA was generally used with the SuperScript III kit (Invitrogen) containing a reverse transcriptase, a set of primers, dNTPs, MgCl2 random hexamers and […] after the cDNA generation according to manufacturer’s instructions. Samples were then stored at -20°C. qPCR measurements were done with 2.5 μL of cDNA mixed with 1 μL (3 μM final) of forward and reverse primers, 5 μL iQ SYBR Green Supermix (BioRad) and 0.5 μL water using the CFX Connect Optical Module (BioRad) program as follows: 95°C for 3 min, then a repeat 40 times of 95°C for 10 sec, 55°C for 30 sec, and a fluorescence reading.
# [2] = system: bceAB genes in S. pneumoniae D39 Δtcs01; test: Quantification of gene expression by qPCR; conditions: D39 Δtcs01 knockout; bacitracin 1 μg/ml
# Method: as §1
# S. pneumoniae R800 WT = conditions: R800 strain; 2-fold broth dilution, Todd-Hewitt medium, 37°C, 15 h; at least biological triplicates, each technical duplicates
# Method: (§2) The MIC of various antimicrobial peptides for R6, R800 and D39 strains was determined by classical 2-fold broth dilution method. Cells were first grown in Todd-Hewitt medium at 37°C without agitation and in anaerobic conditions until the absorbance reaches approximatively 0.3. Complementation strains were grown with 0.5 μM ComS inducer until the appropriate OD. Cells were then diluted at final OD600nm = 0.002 in 96-well plates containing 300 μL of Todd-Hewitt medium (and 2 μM ComS inducer for the complementation strains) with serial dilutions of antimicrobial peptides. Pneumococcal growth was monitored by a microplate reader (TECAN) at 37°C without agitation. The absorbance was followed at 600 nm every 15 min for 15 h.
# [3] = system: S. pneumoniae R800 ΔbceAB-Δhk01-PcomX-hk01; conditions: R800 complementation strain, 2 μM ComS inducer; 2-fold broth dilution, Todd-Hewitt medium, 37°C, 15 h; at least biological triplicates, each technical duplicates
# Method: as §2
# [4] = system: S. pneumoniae R800 bceAB-gfp; conditions: R800 strain; 2-fold broth dilution, Todd-Hewitt medium, 37°C, 15 h; at least biological triplicates, each technical duplicates
# Method: as §2
# [5] = system: S. pneumoniae R800 Δhk01-PcomX-hk01
# Method: as §2
# [6] = system: S. pneumoniae R6 ΔbceAB/tcs01; conditions: R6 strain; 2-fold broth dilution, Todd-Hewitt medium, 37°C, 15 h; two to four biological replicates, each technical duplicates
# Method: as §2
# [7] = system: S. pneumoniae R800 ΔbceAB; conditions: R800 strain; 2-fold broth dilution, Todd-Hewitt medium, 37°C, 15 h; at least biological triplicates, each technical duplicates
# Method: as §2
# S. pneumoniae D39 ΔbceAB = conditions: D39 strain; 2-fold broth dilution, Todd-Hewitt medium, 37°C, 15 h; two to four biological replicates, each technical duplicates
# Method: as §2
# S. pneumoniae R800 Δhk01 = conditions: R800 strain; 2-fold broth dilution, Todd-Hewitt medium, 37°C, 15 h; at least biological triplicates, each technical duplicates
# Method: as §2
# S. pneumoniae D39 WT = conditions: D39 strain
# Method: as §2
# [8] = system: S. pneumoniae D39 ΔbceAB/tcs01; conditions: D39 strain; 2-fold broth dilution, Todd-Hewitt medium, 37°C, 15 h; two to four biological replicates, each technical duplicates
# Method: as §2
# S. pneumoniae R6 ΔbceAB = conditions: R6 strain; 2-fold broth dilution, Todd-Hewitt medium, 37°C, 15 h; two to four biological replicates, each technical duplicates
# Method: as §2
# S. pneumoniae R6 WT = conditions: R6 strain
# Method: as §2
# S. pneumoniae D39 Δtcs01 = conditions: D39 strain; 2-fold broth dilution, Todd-Hewitt medium, 37°C, 15 h; two to four biological replicates, each technical duplicates
# Method: as §2
# S. pneumoniae R6 Δtcs01 = conditions: R6 strain; 2-fold broth dilution, Todd-Hewitt medium, 37°C, 15 h; two to four biological replicates, each technical duplicates
# Method: as §2
smiles,measurement,setting,value
CC[C@H](C)[C@H](N)C1=N[C@H](C(=O)N[C@@H](CC(C)C)C(=O)N[C@H](CCC(=O)O)C(=O)N[C@H](C(=O)N[C@H]2CCCCNC(=O)[C@H](CC(N)=O)NC(=O)[C@@H](CC(=O)O)NC(=O)[C@H](Cc3cnc[nH]3)NC(=O)[C@@H](Cc3ccccc3)NC(=O)[C@H]([C@@H](C)CC)NC(=O)[C@@H](CCCN)NC2=O)[C@@H](C)CC)CS1 [bacitracin] ({Ileψ(thiazoline)Cys}-L[dE]IK[dOrn]I[dF]H[dD]N; lactam 4-C (inferred); N-terminus assumed),Transcription of the tcs01 genes,[1],unaffected
same,Transcription of the bceAB genes,[1]; n = 6-8,strong upregulation
same,Transcription of the bceAB genes,[2],failed to upregulate
same,"MIC, WT",S. pneumoniae R800 WT,4 µg/mL
same,"MIC, ΔbceAB-Δhk01-PcomX-hk01",[3],1 µg/mL
same,"MIC, bceAB-gfp",[4],4 µg/mL
same,Resistance as compared to the WT strain,"[5]; R800-Δhk01-PcomX-rr01-hk01 versus R800 WT, from MICs",64 fold
same,"MIC, Δhk01-PcomX-hk01","[5]; R800 complementation strain, 2 μM ComS inducer, 2-fold broth dilution, Todd-Hewitt medium, 37°C, 15 h, at least biological triplicates, each technical duplicates",256 µg/mL
same,"Minimum Inhibitory Concentration, ΔbceAB/tcs01",[6],1 µg/mL
same,"MIC, ΔbceAB",[7],1 µg/mL
same,"Minimum Inhibitory Concentration, ΔbceAB",S. pneumoniae D39 ΔbceAB,1 µg/mL
same,"MIC, Δhk01",S. pneumoniae R800 Δhk01,1 µg/mL
same,"Minimum Inhibitory Concentration, WT","S. pneumoniae D39 WT; 2-fold broth dilution, Todd-Hewitt medium, 37°C, 15 h, two to four biological replicates, each technical duplicates",4 µg/mL
same,Fold sensitivity diplayed by the KO strains,S. pneumoniae D39 WT; KO strains versus WT MIC,4
same,"Minimum Inhibitory Concentration, ΔbceAB/tcs01",[8],1 µg/mL
same,"Minimum Inhibitory Concentration, ΔbceAB",S. pneumoniae R6 ΔbceAB,1 µg/mL
same,"Minimum Inhibitory Concentration, WT","S. pneumoniae R6 WT; 2-fold broth dilution, Todd-Hewitt medium, 96-well plates, start OD600 0.002, 37°C, A600 followed 15 h, two to four biological replicates, each technical duplicates",8 µg/mL
same,Fold sensitivity displayed by the KO strains,S. pneumoniae R6 WT; KO strains versus WT MIC,8
same,"Minimum Inhibitory Concentration, Δtcs01",S. pneumoniae D39 Δtcs01,1 µg/mL
same,"Minimum Inhibitory Concentration, Δtcs01",S. pneumoniae R6 Δtcs01,1 µg/mL
